Our source for the TGI and GI50 values is PubChem BioAssay (NCI).

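The compound was tested at five concentrations on cells cultured in 96-well plates, with a 48-hour exposure period. GI50 is the concentration that inhibits growth by half. At the TGI there is no net growth.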

Test systems include SW-620 colon; SK-MEL-28 melanoma; SNB-75 CNS; NCI-H522 lung; UO-31 renal; U251 CNS; A498 renal; UACC-62 melanoma; RPMI-8226 leukemia; MDA-MB-231 breast.
Common to all, as to assay: DTP human tumour cell line panel, 48 h

One may read the TGI as the concentration giving total growth inhibition. Low values mean more potent growth arrest, high ones less potent growth arrest. Take `Cc1ccccc1NC(=O)Cc1nc2ccccc2s1`: the concentration for total growth inhibition (TGI) with SW-620 colon was 36 µM; with SK-MEL-28 melanoma, 32.9 µM; with SNB-75 CNS, > 100 µM; with NCI-H522 lung, 29.3 µM; in the assay with UO-31 renal, 23.7 µM; in the assay on U251 CNS, 24.1 µM. The TGI with A498 renal and in the assay on UACC-62 melanoma was 35.7 µM in each case.
`CC1(C)c2ccccc2N2C(c3ccccc3)=NOC21C` (stereo not drawn): the TGI in the assay with SW-620 colon, with SK-MEL-28 melanoma, with SNB-75 CNS, in the assay with RPMI-8226 leukemia, with NCI-H522 lung and with UO-31 renal was > 100 µM each time. Also, the TGI with U251 CNS, in the assay on A498 renal and in the assay on UACC-62 melanoma was > 100 µM in each case.
For `C[P+]1(Cc2ccccc2)CCCC1`, the total growth inhibition concentration (TGI) with SW-620 colon, in the assay with SK-MEL-28 melanoma, in the assay on SNB-75 CNS, with RPMI-8226 leukemia, with NCI-H522 lung and with UO-31 renal was > 100 µM throughout. The TGI in the assay with U251 CNS, with A498 renal and in the assay on UACC-62 melanoma was > 100 µM in each case.
Consider `CCOC(=O)C1=C(OC(OCC)C([Se]c2ccccc2)C(C)C)CCC1` (stereo not drawn), for which the TGI in the assay on SK-MEL-28 melanoma stood at 39.4 µM; in the assay on SNB-75 CNS it was 62.5 µM; in the assay on RPMI-8226 leukemia it was 38.5 µM; in the assay with NCI-H522 lung, 20.2 µM; in the assay with UO-31 renal it was 61 µM; with U251 CNS, 16.6 µM. Also, the TGI is > 100 µM in the assay on A498 renal and 33.6 µM with UACC-62 melanoma.
As for `O=C(NC1CC1)c1c(O)[nH]c(=S)[nH]c1=O`, the TGI in the assay on SW-620 colon, with SK-MEL-28 melanoma, in the assay on SNB-75 CNS, in the assay with RPMI-8226 leukemia, in the assay with NCI-H522 lung and in the assay with UO-31 renal was > 100 µM each time. The TGI in the assay on U251 CNS, with A498 renal and in the assay with UACC-62 melanoma was > 100 µM each time.
What is called GI50 is the concentration at which growth is held to half of that of the control. Regarding `CC(=O)[CH-]C(=O)c1ccccc1.CC(=O)[CH-]C(=O)c1ccccc1.Cl.[O-]c1ccnc2ccccc12.[O-]c1ccnc2ccccc12.[Ti+4]`, the GI50 in the assay with SW-620 colon, in the assay on SK-MEL-28 melanoma, with SNB-75 CNS, in the assay on RPMI-8226 leukemia, in the assay with NCI-H522 lung and in the assay with UO-31 renal was > 100 µM throughout. Besides, the GI50 in the assay on U251 CNS, with A498 renal and with UACC-62 melanoma was > 100 µM each time. Moreover, the total growth inhibition concentration (TGI) in the assay with SW-620 colon, with SK-MEL-28 melanoma, with SNB-75 CNS, in the assay on RPMI-8226 leukemia, in the assay on NCI-H522 lung and in the assay on UO-31 renal was > 100 µM in each case. Further, the TGI in the assay with U251 CNS, in the assay with A498 renal and with UACC-62 melanoma was > 100 µM in each case.
Turning to `Cc1cccc(NC(=O)C(=O)C(C2OC(=O)c3ccccc32)[N+](=O)[O-])c1C` (stereo not drawn), the TGI in the assay with SW-620 colon is 20.9 µM; in the assay with SK-MEL-28 melanoma, 25.1 µM; in the assay with SNB-75 CNS, 19.7 µM; with NCI-H522 lung it was 4.2 µM; with UO-31 renal, 21.4 µM; in the assay on U251 CNS, 12.6 µM. The TGI in the assay with A498 renal came to 32 µM; in the assay on UACC-62 melanoma it was 23.1 µM.
As to `C/C=C/C(=O)Oc1cccc2cccnc12`, the TGI in the assay on SW-620 colon was 38.5 µM; in the assay on SK-MEL-28 melanoma, 61.6 µM; with SNB-75 CNS it was > 75.6 µM; in the assay with RPMI-8226 leukemia it was > 96.1 µM; in the assay on NCI-H522 lung, 5.15 µM; with UO-31 renal it was > 84.7 µM. The values for the total growth inhibition concentration (TGI) with U251 CNS and in the assay with UACC-62 melanoma were 12.9 µM and > 39.5 µM, respectively.
Take `CC(=O)OC1CCC2OOC1O2` (stereo not drawn): the TGI in the assay on SW-620 colon, in the assay on SK-MEL-28 melanoma, in the assay on SNB-75 CNS, in the assay with RPMI-8226 leukemia, in the assay with NCI-H522 lung and in the assay on UO-31 renal was > 100 µM throughout. In addition, the TGI with U251 CNS, in the assay with A498 renal and in the assay on UACC-62 melanoma was > 100 µM in each case.
In the case of `CN(C)NC(=O)/C(=C/c1ccc(Cl)cc1)NC(=O)c1ccccc1`, the TGI in the assay on SK-MEL-28 melanoma, with SNB-75 CNS, in the assay with RPMI-8226 leukemia, in the assay with NCI-H522 lung, with UO-31 renal and with U251 CNS was > 100 µM each time. Also, the TGI with A498 renal and in the assay with UACC-62 melanoma was > 100 µM throughout.
On to `O=S1(=O)c2ccccc2N(c2ccccc2)c2nnnn21`, for which the TGI in the assay on SW-620 colon is 53.6 µM; in the assay on SK-MEL-28 melanoma, 92.9 µM; in the assay on MDA-MB-231 breast, 72.4 µM; in the assay on NCI-H522 lung, 38.9 µM; in the assay with UO-31 renal, > 100 µM; in the assay with U251 CNS, > 100 µM. For the same compound, the values for the TGI in the assay on A498 renal and in the assay on UACC-62 melanoma were 55.4 µM and 37.1 µM, respectively.
Turning to `Cn1[nH]cc2ccc3nc4ccccc4c(=O)c3c21`, the TGI in the assay on SW-620 colon is > 100 µM; in the assay on SK-MEL-28 melanoma, > 88.5 µM; in the assay on SNB-75 CNS it was 94.5 µM; in the assay on RPMI-8226 leukemia, 67.6 µM; in the assay with NCI-H522 lung, 64.9 µM; in the assay on UO-31 renal, 52.3 µM. In addition, the TGI came out at 30.7 µM with U251 CNS, 67.7 µM in the assay with A498 renal and 26.6 µM with UACC-62 melanoma.
Take `CCOC(=O)c1cc(=O)n(C)c(=O)n1C`: the total growth inhibition concentration (TGI) in the assay with SW-620 colon, in the assay on SK-MEL-28 melanoma, with SNB-75 CNS, with NCI-H522 lung, in the assay with UO-31 renal and in the assay with U251 CNS was > 100 µM in each case. The concentration for total growth inhibition (TGI) in the assay with A498 renal and in the assay with UACC-62 melanoma was > 100 µM in each case.
On to `O=C1c2ccccc2C(=O)N1CCCOCc1c[nH]c(=O)[nH]c1=O`, for which the TGI in the assay on SW-620 colon, with SK-MEL-28 melanoma, in the assay on SNB-75 CNS, with RPMI-8226 leukemia, in the assay with NCI-H522 lung and in the assay on UO-31 renal was > 100 µM in each case. In addition, the TGI in the assay on U251 CNS, in the assay on A498 renal and in the assay on UACC-62 melanoma was > 100 µM throughout.
